Measurements from patent US7939467B2, “4-(3-aminobenzoyl)-1-ethylpyrazoles and their use as herbicides” (Bayer CropScience AG, priority 2007, dated 2011).

Assays:
Test in all cases: Herbicidal action against harmful plants, greenhouse pot test (comparative tables)
Assay type in all cases: in vivo
Viola tricolor = conditions: 320 g a.i./ha; scored 3-4 weeks after treatment; comparative table 1
Excerpt: (§1) Seeds or rhizome pieces of mono- and dicotyledonous harmful plants are placed in sandy loam in pots of a diameter of 9 to 13 cm and covered with soil. The herbicides, formulated as emulsifiable concentrates or dusts, are applied to the surface of the covering soil in the form of aqueous dispersions or suspensions or emulsions at an application rate of 300 to 800 l of water/ha (converted), at various dosages. For further cultivation of the plants, the pots are then kept in a greenhouse under optimum conditions. The visual scoring of the damage to the harmful plants is carried out 3-4 weeks after the treatment. As shown by the results of these comparative tables, the selected compounds according to the invention have better herbicidal activity against a broad spectrum of economically important mono- and dicotyledonous harmful plants than the compounds disclosed in the prior art.
(§2) Seeds of mono- and dicotyledonous harmful plants are placed in sandy loam in cardboard pots, covered with soil and grown in the greenhouse under good growth conditions. Two to three weeks after sowing, the test plants are treated at the three-leaf stage. The compounds according to the invention, which are formulated as wettable powders or as emulsion concentrates, are sprayed at an application rate of 600 to 800 l of water/ha (converted) in a dosage stated in tables 1 to 5 onto the surface of the green plant parts. After the test plants have been left to stand in the greenhouse for 3 to 4 weeks under optimum growth conditions, the action of the compounds according to the invention is scored in comparison to compounds disclosed in the prior art. As shown by the results of these comparison tables, the selected compounds according to the invention have better herbicidal activity against a broad spectrum of economically important mono- and dicotyledonous harmful plants than the compounds disclosed in the prior art.

Matricaria inodora = conditions: 320 g a.i./ha; scored 3-4 weeks after treatment; comparative table 1
Excerpt: as §1, §2

Polygonum convolvulus = conditions: scored 3-4 weeks after treatment
Excerpt: as §1, §2

Setaria viridis = conditions: scored 3-4 weeks after treatment
Excerpt: as §1, §2

Echinochloa crus galli = conditions: 80 g a.i./ha; scored 3-4 weeks after treatment; comparative table 2
Excerpt: as §1, §2

Veronica persica = conditions: scored 3-4 weeks after treatment
Excerpt: as §1, §2

[1] = 320 g a.i./ha, comparative table 1
[2] = 80 g a.i./ha, comparative table 2
[3] = 320 g a.i./ha, comparative table 3

Row | SMILES | Activity against harmful plants VIOTR (Viola tricolor) [%] | Activity against harmful plants MATIN (Matricaria inodora) [%] | Activity against harmful plants POLCO (Polygonum convolvulus; [1]) [%] | Activity against harmful plants SETVI (Setaria viridis; [2]) [%] | Activity against harmful plants ECHCG (Echinochloa crus galli) [%] | Activity against harmful plants VERPE (Veronica persica; [2]) [%] | Activity against harmful plants POLCO (Polygonum convolvulus; [2]) [%] | Activity against harmful plants SETVI (Setaria viridis; [3]) [%] | Activity against harmful plants VERPE (Veronica persica; [3]) [%]
1 | CCOCCNc1c(S(C)(=O)=O)ccc(C(=O)c2cnn(CC)c2O)c1C | 90 | 90 | 70 | – | – | – | – | – | –
2 | CCOCCNc1c(S(C)(=O)=O)ccc(C(=O)c2cnn(CC)c2O)c1Cl | 70 | 0 | 0 | – | – | – | – | – | –
3 | CCn1ncc(C(=O)c2ccc(S(C)(=O)=O)c(N(C)CCCOC)c2C)c1O | – | – | – | 90 | 90 | 90 | 80 | – | –
4 | CCn1ncc(C(=O)c2ccc(S(C)(=O)=O)c(N(C)CCCOC)c2Cl)c1O | – | – | – | 0 | 40 | 60 | 30 | – | –
5 | CCn1ncc(C(=O)c2ccc(S(C)(=O)=O)c(NCC3CC3)c2C)c1O | – | – | – | – | – | – | – | 100 | 90
6 | CCn1ncc(C(=O)c2ccc(S(C)(=O)=O)c(NCC3CC3)c2Cl)c1O | – | – | – | – | – | – | – | 80 | 70
